Laboratory results as given in US20230114728A1 (Venatorx Pharmaceuticals, Inc., priority 2019, published 2023).
In brackets after ≈: the same amount, converted by molar mass.

Experiments:
[1] = molecular target: A. baumannii PBP1a (Acinetobacter baumannii, UniProt A0ABX6CK30); test: Bocillin-FL fluorescence polarization competition binding assay, A. baumannii PBP1a; conditions: fluorescence polarization competition binding assay using Bocillin-FL; column 1; read-out: A. baumannii PBP1a Potency
Excerpt: Example I: Experimental Method for Penicillin-Binding Protein Binding Assays with Bocillin-FL Via Fluorescence Polarization
To determine the ability of boronic acid-based test PBP inhibitors to bind Penicillin Binding Proteins (PBPs), Bocillin-FL (fluorescently-labeled penicillin V; ThermoFisher Scientific) was used in a fluorescence polarization (FP) competition binding assay to assess inhibitor binding to PBP2, PBP3 or PBP4 from Escherichia coli (K12), PBP3 from Pseudomonas aeruginosa (PA01), PBP1a, PBP2 and PBP3 from Acinetobacter baumannii (ATCC 19606), and PBP2 from Neiserria gonorrheae (FA19). PBPs were cloned and purified as described previously (E. coli PBPs, King, D. T, et al., ACS Infectious Diseases 2015, 1, 175-184; P. aeruginosa PBP3, Han et. al., PNAS 2010, 107 (51), 22002-22007; A. baumannii PBPs, Penwell et. al., Antimicrob. Agents Chemother. 2015, 59 (3), 1680-1689; N. gonorrhoeae PBP2, Singh et. al., J Biol. Chem. 2019, 294 (38), 14020-14032). To establish assay conditions for competition binding, enzyme titration/saturation binding experiments were initially performed. Bocillin-FL was prepared at 0.2 μM in a buffer comprised of 50 mM Hepes (pH 8.0), 300 mM NaCl and 5% (v/v) glycerol for reactions with E. coli, P. aeruginosa and N. gonorrhoeae PBPs, and 25 mM Tris (pH 8.0), 200 mM NaCl and 10% (v/v) glycerol and 0.005% (v/v) Tween 20 for reactions with A. baumannii PBPs. Saturation binding was performed by mixing 40 μl of PBP solutions ranging in concentrations from 0-24 μM with 40 μl of the 0.2 μM Bocillin-FL solution, in individual wells of a black 384-well microplate. FP was measured immediately upon mixing (Excitation, 490 nm; Emission, 520 nm; g-factor, 0.96), using a Cytation3 (BioTek) microplate reader and measured continuously for up to 120 minutes. […] The competition binding assay (80 μl final volume) was validated using beta-lactams and PBPs at final concentrations of: 1.5 μM, E. coli PBP3; 0.75 μM, P. aeruginosa PBP3; 1 μM A. baumannii PBP1a; 2.5 μM A. baumannii PBP2; 0.2 μM A. baumannii PBP3; and […] N. gonorrhoeae PBP2. Bocillin-FL was at 0.1 μM (0.05 μM with A. baumannii PBP1a) and beta-lactam concentrations ranged from 0-1000 μM. […] Bocillin-FL was added and the FP immediately measured for up to 60 minutes (90 minutes for E. coli PBP2). […] The beta-lactam potency was reported as the concentration of beta-lactam required to reduce the amount of PBP bound-Bocillin-FL by 50% (EC50). […] Binding assays for boronic acid PBP inhibitors were performed in an identical fashion for the respective PBPs

[2] = Bocillin-FL fluorescence polarization competition binding assay, A. baumannii PBP3; conditions: fluorescence polarization competition binding assay using Bocillin-FL; column 3; read-out: 4. baumannii PBP1a Potency
Summary of the method: (§1)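 Fluorescence polarization (ex 490/em 520 nm) competition of inhibitors against Bocillin-FL at 0.1 μM, read up to 60 min. Final PBP levels: E. coli PBP3 1.5 μM; A. baumannii PBP2 2.5 μM, PBP3 0.2 μM in Tris pH 8.0/NaCl/glycerol/Tween 20; N. gonorrhoeae PBP2 […] in Hepes pH 8.0/NaCl/glycerol. EC50 = concentration halving PBP-bound Bocillin-FL.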

[3] = system: A. baumannii ATCC 19606; test: Broth microdilution MIC in iron-depleted CAMHB (IDM); assay type: cell-based; conditions: Acinetobacter baumannii, ATCC19606, read-out: Minimum Inhibitory Concentration, ATCC 19606
Summary of the method: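 MIC read by eye as the lowest concentration with no bacterial growth, following CLSI microdilution in iron-depleted cation-adjusted Mueller-Hinton broth at pH 7.3. Starting inoculum 2-8×10^5 CFU/mL; incubation 37° C, 16-20 h for Pseudomonas, 20-24 h for Acinetobacter.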

[4] = system: A. baumannii CDC-0045 producing TEM-1D, OXA-23, and OXA-69; test: as above; assay type: cell-based; conditions: Acinetobacter baumannii, read-out: Minimum Inhibitory Concentration, CDC-0045
[5] = system: P. aeruginosa CDC-0110; test: as above; assay type: cell-based; conditions: Pseudomonas aeruginosa, CDC0110, read-out: Minimum Inhibitory Concentration, P. aeruginosa CDC-0110
Summary of the method: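 CLSI broth microdilution in iron-depleted cation-adjusted Mueller Hinton broth (Chelex-treated, Ca, Mg, Zn restored, pH 7.3), inoculum 2-8×10^5 CFU/mL, 2-fold compound dilutions. Pseudomonas plates incubated 16-20 h at 37 °C; MIC read visually as lowest concentration without growth.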

[6] = molecular target: T1, N. gonorrhoeae PBP2 (Neisseria gonorrhoeae, UniProt P08149); test: Bocillin-FL fluorescence polarization competition binding assay, N. gonorrhoeae PBP2; conditions: fluorescence polarization competition binding assay using Bocillin-FL; read-out: N. gonorrhoeae PBP2 Potency
T1 construct: made in house
T1 sequence (P08149 whole entry): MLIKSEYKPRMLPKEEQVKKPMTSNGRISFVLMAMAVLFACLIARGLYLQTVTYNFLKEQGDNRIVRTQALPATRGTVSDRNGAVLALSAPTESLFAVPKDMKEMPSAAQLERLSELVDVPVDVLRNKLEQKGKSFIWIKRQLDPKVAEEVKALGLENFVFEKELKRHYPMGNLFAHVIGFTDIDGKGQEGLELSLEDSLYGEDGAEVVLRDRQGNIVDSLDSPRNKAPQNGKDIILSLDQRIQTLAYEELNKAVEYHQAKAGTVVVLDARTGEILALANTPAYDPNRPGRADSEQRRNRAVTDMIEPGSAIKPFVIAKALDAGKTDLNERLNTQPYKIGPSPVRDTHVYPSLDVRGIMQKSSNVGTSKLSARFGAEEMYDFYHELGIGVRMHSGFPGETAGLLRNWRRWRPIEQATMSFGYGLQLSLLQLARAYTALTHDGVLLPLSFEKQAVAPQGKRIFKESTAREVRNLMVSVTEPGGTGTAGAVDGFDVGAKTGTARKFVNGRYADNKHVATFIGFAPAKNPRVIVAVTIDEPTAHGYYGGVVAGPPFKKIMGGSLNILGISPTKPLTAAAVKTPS
Summary of the method: as §1

A. baumannii PBP1a, sequence (A0ABX6CK30 entry or part of it): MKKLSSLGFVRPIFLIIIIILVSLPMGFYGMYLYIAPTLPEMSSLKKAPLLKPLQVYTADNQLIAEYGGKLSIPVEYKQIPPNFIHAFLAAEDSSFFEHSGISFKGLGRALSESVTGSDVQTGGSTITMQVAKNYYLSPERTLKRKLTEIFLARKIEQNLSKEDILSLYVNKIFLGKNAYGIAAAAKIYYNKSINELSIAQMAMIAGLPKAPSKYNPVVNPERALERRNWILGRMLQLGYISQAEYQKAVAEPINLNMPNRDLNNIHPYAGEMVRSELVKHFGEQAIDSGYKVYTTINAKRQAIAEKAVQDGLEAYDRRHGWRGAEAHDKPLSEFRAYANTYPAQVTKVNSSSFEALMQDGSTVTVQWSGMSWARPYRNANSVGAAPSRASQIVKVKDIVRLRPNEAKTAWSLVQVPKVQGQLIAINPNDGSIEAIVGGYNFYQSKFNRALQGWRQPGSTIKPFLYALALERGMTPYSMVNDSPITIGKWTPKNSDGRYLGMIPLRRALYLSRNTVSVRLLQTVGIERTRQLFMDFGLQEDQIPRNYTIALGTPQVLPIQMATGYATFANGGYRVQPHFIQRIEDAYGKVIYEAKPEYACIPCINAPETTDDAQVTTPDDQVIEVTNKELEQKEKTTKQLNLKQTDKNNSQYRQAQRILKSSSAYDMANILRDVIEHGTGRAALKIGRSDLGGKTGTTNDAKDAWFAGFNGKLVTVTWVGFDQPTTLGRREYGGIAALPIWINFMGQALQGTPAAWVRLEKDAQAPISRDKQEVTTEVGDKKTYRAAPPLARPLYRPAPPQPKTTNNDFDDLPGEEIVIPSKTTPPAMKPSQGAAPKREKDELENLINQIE

SMILES	EC50 [1]	EC50 [2]	MIC [3]	MIC [4]	MIC [5]	EC50 [6]
NC1(CN2CCN(C(=O)N[C@@H](C(=O)N[C@H]3Cc4ccc(F)c(C(=O)O)c4OB3O)c3c(F)cc(O)c(O)c3Cl)C(=O)C2=O)CC1 (single isomer, unassigned) [Example 134]	> 100 µM	< 10 µM	0.5 to 1 µg/mL (≈ 0.767 to 1.53 µM)	32 to 64 µg/mL (≈ 49.1 to 98.2 µM)	2 to 4 µg/mL (≈ 3.07 to 6.14 µM)	
NCCN1CCN(C(=O)N[C@@H](C(=O)N[C@H]2Cc3ccc(F)c(C(=O)O)c3OB2O)c2cc(F)c(O)c(O)c2Cl)C(=O)C1=O (single isomer, unassigned) [Example 179]	> 100 µM	> 100 µM	0.5 to 1 µg/mL (≈ 0.799 to 1.6 µM)	8 to 16 µg/mL (≈ 12.8 to 25.6 µM)	0.5 to 1 µg/mL (≈ 0.799 to 1.6 µM)	> 100 µM
NCCCN1CCN(C(=O)N[C@@H](C(=O)N[C@H]2Cc3ccc(F)c(C(=O)O)c3OB2O)c2cc(F)c(O)c(O)c2Cl)C(=O)C1=O (single isomer, unassigned) [Example 180]	> 100 µM	> 100 µM	0.5 to 1 µg/mL (≈ 0.782 to 1.56 µM)	2 to 4 µg/mL (≈ 3.13 to 6.25 µM)	0.25 µg/mL (≈ 0.391 µM)	> 100 µM
C[C@@H](O)[C@@H](NC(=O)N1CCN(CCNC(=O)c2c(F)cc(O)c(O)c2Cl)C(=O)C1=O)C(=O)N[C@H]1Cc2ccc(F)c(C(=O)O)c2OB1O [Example 102, (R)-3-((2R,3R)-2-(4-(2-(2-chloro-6-fluoro-3,4-dihydroxybenzamido)ethyl)-2,3-dioxopiperazine-1-carboxamido)-3-hydroxybutanamido)-7-fluoro-2-hydroxy-3,4-dihydro-2H-benzo[e][1,2]oxaborinine-8-carboxylic acid]	> 100 µM	30 to 100 µM	2 to 4 µg/mL (≈ 2.87 to 5.73 µM)	32 to 64 µg/mL (≈ 45.9 to 91.7 µM)	0.5 to 1 µg/mL (≈ 0.717 to 1.43 µM)	10 to 30 µM
NS(=O)(=O)Nc1cccc(C(NC(=O)N2CCN(Cc3c(F)cc(O)c(O)c3Cl)C(=O)C2=O)C(=O)N[C@H]2Cc3cccc(C(=O)O)c3OB2O)c1 (stereo partly drawn) [Example 131, (3R)-3-(2-(4-(2-chloro-6-fluoro-3,4-dihydroxybenzyl)-2,3-dioxopiperazine-1-carboxamido)-2-(3-(sulfamoylamino)phenyl)acetamido)-2-hydroxy-3,4-dihydro-2H-benzo[e][1,2]oxaborinine-8-carboxylic acid]	30 to 100 µM	< 10 µM	> 128 µg/mL	> 128 µg/mL	2 to 4 µg/mL (≈ 2.67 to 5.34 µM)	
NS(=O)(=O)c1cc(O)cc(C(NC(=O)N2CCN(Cc3c(F)cc(O)c(O)c3Cl)C(=O)C2=O)C(=O)N[C@H]2Cc3cccc(C(=O)O)c3OB2O)c1 (stereo partly drawn) [Example 132, (3R)-3-(2-(4-(2-chloro-6-fluoro-3,4-dihydroxybenzyl)-2,3-dioxopiperazine-1-carboxamido)-2-(3-hydroxy-5-sulfamoylphenyl)acetamido)-2-hydroxy-3,4-dihydro-2H-benzo[e][1,2]oxaborinine-8-carboxylic acid]	30 to 100 µM	< 10 µM	8 to 16 µg/mL (≈ 10.7 to 21.3 µM)	> 128 µg/mL	2 to 4 µg/mL (≈ 2.67 to 5.33 µM)	
CCN1CCN(C(=O)NC(C(=O)N[C@H]2Cc3cccc(C(=O)O)c3OB2O)c2c(F)cc(N)cc2F)C(=O)C1=O (stereo partly drawn) [Example 181, (3R)-3-(2-(4-amino-2,6-difluorophenyl)-2-(4-ethyl-2,3-dioxopiperazine-1-carboxamido)acetamido)-2-hydroxy-3,4-dihydro-2H-benzo[e][1,2]oxaborinine-8-carboxylic acid]	> 100 µM	> 100 µM				> 100 µM
